Experimental data published in ChEMBL document CHEMBL3045782, “SYNTHESIS OF THE RIGID ANALOGUES OF AN SSRI BENZENEPROPANAMINE” (Med Chem Res, 2004).
Calls of active or inactive are those of the source. No cut-off for these calls is given here.

Key:
Mus musculus [1] = test: Antidepressant activity in Mus musculus albino (mouse) assessed as reversal of reserpine-induced ptosis, sedation and crouching at 75 umol/kg, ip; format: functional
Mus musculus [2] = test: Anorexigenic activity in Mus musculus albino (mouse) assessed as anorexia at 75 umol/kg, ip; format: functional
Mus musculus [3] = test: Toxicity in Mus musculus albino (mouse) assessed as effect on gross behavior activity at 75 umol/kg, ip; format: organism-based; details: in vivo
Mus musculus [4] = test: Anorexigenic activity in Mus musculus albino (mouse) assessed as anorexia at 75 umol/kg, ip relative to fluoxetine; format: functional

Structure (SMILES) | Activity (Mus musculus [1]) | Activity (Mus musculus [2]) | Activity (Mus musculus [3]) | Activity (Mus musculus [4])
OC(COc1ccc(Cl)cc1)CN1CCC(Oc2ccc(C(F)(F)F)cc2)CC1 (stereo unspecified) | 75% | 61.6% | Non-toxic | 75.49%
CN1CCC(O)(c2ccccc2)CC1 | inactive | 46.4% | Non-toxic | 56.86%
FC(F)(F)c1ccc(OC2CCNCC2)cc1 | 75% | 66.8% | Non-toxic | 81.86%
OC(COc1ccc(Br)cc1)CN1CCC(Oc2ccc(C(F)(F)F)cc2)CC1 (stereo unspecified) | inactive | 77.6% | Non-toxic | 95.09%
COC(=O)c1ccc(OCC(O)CN2CCC(Oc3ccc(C(F)(F)F)cc3)CC2)cc1 (stereo unspecified) | inactive | 26.8% | Non-toxic | 32.84%
CNCCC(Oc1ccc(C(F)(F)F)cc1)c1ccccc1 (stereo unspecified) [FLUOXETINE] | 100% | 81.6% | – | –
CCC(=O)c1ccc(OCC(O)CN2CCC(Oc3ccc(C(F)(F)F)cc3)CC2)cc1 (stereo unspecified) | inactive | 55.2% | Non-toxic | 67.64%
OC(COc1cccc(C(F)(F)F)c1)CN1CCC(Oc2ccc(C(F)(F)F)cc2)CC1 (stereo unspecified) | inactive | 31.2% | Non-toxic | 38.23%
CC(=O)Nc1ccc(OCC(O)CN2CCC(Oc3ccc(C(F)(F)F)cc3)CC2)cc1 (stereo unspecified) | inactive | 50.4% | Non-toxic | 61.67%
CN1CCC(Oc2ccc(C(F)(F)F)cc2)CC1 | inactive | 23.6% | Non-toxic | 28.92%
COc1ccc(OCC(O)CN2CCC(Oc3ccc(C(F)(F)F)cc3)CC2)cc1 (stereo unspecified) | inactive | 38.4% | Non-toxic | 47.05%
OC(COc1ccccc1)CN1CCC(Oc2ccc(C(F)(F)F)cc2)CC1 (stereo unspecified) | inactive | 67.6% | Non-toxic | 82.84%
OC(COc1ccc(C(F)(F)F)cc1)CN1CCC(Oc2ccc(C(F)(F)F)cc2)CC1 (stereo unspecified) | inactive | 63.6% | Non-toxic | 77.94%
COc1cccc(OCC(O)CN2CCC(Oc3ccc(C(F)(F)F)cc3)CC2)c1 (stereo unspecified) | 50% | 51.6% | Non-toxic | 63.23%
CC(=O)c1ccc(OCC(O)CN2CCC(Oc3ccc(C(F)(F)F)cc3)CC2)cc1 (stereo unspecified) | inactive | 78.4% | Non-toxic | 96.07%
N#Cc1ccc(OCC(O)CN2CCC(Oc3ccc(C(F)(F)F)cc3)CC2)cc1 (stereo unspecified) | inactive | 57.6% | Non-toxic | 70.58%
COC(=O)c1ccccc1OCC(O)CN1CCC(Oc2ccc(C(F)(F)F)cc2)CC1 (stereo unspecified) | inactive | 35.2% | Non-toxic | 43.13%
